Results as given in patent US8809265B2, “Methods for treating HCV” (AbbVie Inc., priority 2011, dated 2014).

Assay: bioequivalence of solid formulations of Compound 2
Assay type: in vivo
Conditions: 250 mg in improved solid formulation (increased binder, e.g. copovidone) versus 400 mg in original formulation
Description: Accordingly, in one aspect, the present technology features a method of treating HCV infection, comprising administering to a patient in need thereof an effective amount of a combination of two or more DAAs. […] The DAAs can be administered at the same or different dosing frequencies. The patient being treated can be a treatment naïve patient, a treatment experienced patient, including, but not limited to, a relapser, an interferon partial responder, or an interferon non-responder; or a patient unable to take interferon. The patient may be infected with, for example and without limitation, HCV genotype 1, such as HCV genotype 1a or HCV genotype 1b; or HCV genotype 2 or 3. The treatment according to this aspect of the technology may also be effective against other HCV genotypes. The DAAs can be administered around the same time or at different times, and can be co-formulated in a single formulation or formulated in different compositions. Each DAA can be selected from HCV protease inhibitors, HCV polymerase inhibitors, or HCV NS5A inhibitors. […]

SMILES: COc1c(-c2ccc3cc(NS(C)(=O)=O)ccc3c2)cc(-n2ccc(=O)[nH]c2=O)cc1C(C)(C)C [Compound 2, N-(6-(3-tert-butyl-5-(2,4-dioxo-3,4-dihydropyrimidin-1(2H)-yl)-2-methoxyphenyl)naphthalen-2-yl)methanesulfonamide]
- bioequivalence of formulations: bioequivalent
